Columns and labels:
[1] = test system: Arabidopsis thaliana Col-0 root protoplasts; assay: Calcium influx ([Ca2+]cyt) in root protoplasts, Fluo-4 AM probe; assay type: cell-based; details: 10 µM, Fluo-4 normalized fluorescence (F/F0), within first 30 min; n = 6; Figure 4A,B
Procedure: Two-week-old Arabidopsis thaliana seedling roots (from 27 mg seeds) were collected and were cut into 1–2 mm segments and incubated in a protoplasting solution (20 mM MES pH 5.7, 0.4 M mannitol, 20 mM KCl, 10 mM CaCl2, 0.1% (w/v) BSA, 1.5% (w/v) cellulase R10 (Duchefa Biochemie, Haarlem, The Netherlands), 0.4% (w/v) macerozyme R10 (Duchefa Chimie)) for 3 h at room temperature and in the dark. After incubation, 1 mL of solution A (154 mM NaCl, 5 mM KCl, 125 mM CaCl2, 4 mM MES, pH = 5.7) was added inside. The suspension was agitated gently and filtered by a 70 µm pore filter to remove extra root debris. Filtered suspension was centrifuged at 850 g for 6 min at room temperature, and the pelleted protoplasts were rinsed three times with solution B (4 mM MES pH 5.7, 154 mM NaCl, 125 mM CaCl2, 5 mM KCl) before being resuspended in solution C (2 mM MES pH 5.7, 0.5 M mannitol, 20 mM KCl, 2 mM CaCl2) at a working concentration of 1–2 × 10^5 cells per mL. Calcium measurements were also performed on protoplasts with the Fluo-4 AM probe. Protoplasts isolated from roots of Arabidopsis thaliana Col-0 were incubated for 1 h with 5 µM of Fluo-4 AM (Thermo Fisher Scientific, Hampton, VA, USA) (from a 5 mM stock solution in DMSO). The suspension was then centrifuged at 750 g, and the supernatant was discarded to eliminate the remaining free fluo-4 AM. The protoplasts were resuspended in fresh solution C and were incubated for 1 h. Microplates (96 Flat Black-Greiner Bio-One^TM CellStar^TM, Fischer Scientific) were loaded with 150 µL of protoplast solution per well. After the addition of 50 µL of 4-times-concentrated treatment, the fluorescence was recorded every 15 s using a Spark® microplate reader (Tecan, Männedorf, Switzerland) with an excitation filter at 485 ± 20 nm and an emission filter at 535 ± 25 nm. The values obtained were then converted as normalized fluorescence increase (F/F0) by dividing the fluorescence measured at each time point (F) by the fluorescence measured at the first time point (F0).

[2] = UPLC-MS retention on C18 as relative hydrophobicity; assay type: physicochemical; details: chromatographic, C18 (BEH C18 1.7 µm), water/ACN with 0.1% TFA gradient, 40 °C; order of homologue groups Srf, Liche, Pumi; Figure 1B,D,F
Source text: The purified material was freeze-dried (lyophilisator Martin Christ alpha 3–4 LSC BASIC) before storage. All the CLPs used in this research were freshly prepared from powder before each experiment. The concentration of Liche or Pumi was referred to the concentration of Srf and determined by MassHunter Workstation software (version B.09.00) after data collection from an Agilent Technologies 1290 Infinity (Santa Clara, CA, USA), with a C18 reversed-phase column (waters acquity premier BEH C18 1.7 µm 2.1 mm × 50 mm) being used at a flow rate of 0.6 mL/min and a temperature of 40 °C. […] That was coupled with a mass detector (Agilent Technologies 6530 Accurate-Mass Q-TOF LC/MS, Santa Clara, CA, USA) in positive mode, with the parameters set up as follows: drying gas temperature of 300 °C, drying gas of 8 L/min, nebulizer of 35 psi, sheath gas temperature of 350 °C, flow rate of sheath gas of 11 L/min, capillary voltage of 3.5 kV, nozzle voltage (expt) of 1 kV, fragmentor voltage of 175 V, skimmer voltage of 65 V, and octopole radiofrequency of 750 V. Accurate mass spectra were recorded in the m/z range of 100–1700. […]

[3] = test system: Arabidopsis thaliana roots; assay: Intracellular NO (RNS burst) in roots, DAF-DA probe; assay type: cell-based; details: for NO accumulation in roots vs mock: 10 µM, DAF-DA fluorescence fold change at 20 min vs mock (DMSO 0.1%), n = 12 from three independent experiments, Figure 3A,B
Procedure: For the detection of intracellular NO, roots were processed as described above and 200 µL sterile water was replaced by 200 µL 5 μM DAF-DA in a buffered solution (10 mM Tris/HCl, pH = 7.4). Roots were incubated at room temperature for 1 h in the absence of light and then washed 3 times with Tris/HCl (10 mM, pH = 7.4). The fluorescence emitted by DAF-DA was detected by excitation at 495 nm and emission at 515 nm. Experiments where NO was measured after pretreatment with the calcium channel blocker or calcium chelator included an additional step where LaCl3 (10 mM; Merck Chemicals SA, Hoeilaart, Belgium) or EGTA (1 mM; Merck Chemicals SA, Hoeilaart, Belgium) was added three minutes before treatments. Data were processed as described above for ROS. For NO measurements in protoplasts, the suspension was incubated in the same conditions before being distributed (50 µL) in microplate wells and treated with the CLPs at a 10 µM final concentration or with 0.1% DMSO as a mock.

BGLU42 = assay: Coumarin pathway reporter line pBGLU42:GFP-GUS; assay type: cell-based, Arabidopsis thaliana; details: 10 µM Srf, 20 min post treatment, vs mock; n = 12 from three independent experiments; p < 0.05; Figure 6B
Procedure: Seedlings of the Arabidopsis thaliana reporter lines pMYB72:GFP-GUS and pBGLU42:GFP-GUS were germinated and cultivated for seven days under the aforementioned conditions. Uniform plantlets were then transferred to 96-well optical bottom black microplates (Greiner 96 µClear, Thermo Fisher Scientific, Hampton, VA, USA). Each well contained 150 µL of the hydroponic solution. Following transfer, the microplates were sealed and incubated in a growth chamber under controlled conditions (22 °C with a 12 h photoperiod). On the fifth day of this incubation, the plates were treated by adding 150 µL of either the CLP solution or a mock control to each well. Fluorescence measurements were subsequently acquired using a Spark microplate reader and configured with an excitation wavelength of 485 nm and an emission wavelength of 530 nm. Data were collected with nine measurement points acquired per well to ensure robustness.

Row | Substance | [Ca2+]cyt increase in root protoplasts [1] | UPLC-MS elution order (relative hydrophobicity) [2] | NO accumulation in roots vs mock [3] | BGLU42 expression in roots of reporter line (GFP fluorescence) (BGLU42) | Srf-induced RNS (NO burst) in roots after pretreatment with Ca2+ chelator EGTA ([3]; EGTA 1 mM added three minutes before treatment, over 50 min, n = 8 from two independent experiments, Figure 4D) | Srf-induced RNS (NO burst) in roots after pretreatment with Ca2+ channel blocker LaCl3 ([3]; LaCl3 10 mM added three minutes before treatment, over 50 min, n = 8 from two independent experiments, Figure 4C)
1 | lichenysin | fast increase in [Ca^2+]cyt | – | – | – | – | –
2 | pumilacidin | not significant | then Pumi | no impact | – | – | –
3 | surfactin [Srf] | fast increase in [Ca^2+]cyt | eluted first | fast accumulation of NO | significant upregulation | abolished | abolished

Source: PMC12562324, “Surfactin Structural Variants Differentially Modulate Plant Immune Responses” (Biomolecules, 2025)
